From patent US6515106B1, “Lysozyme-analogous polypeptides with an anti-microbial effect, their production and use” (priority 1997, dated 2003)
Read-outs that look alike come from different tables or passages of the source.

What was measured:
Escherichia coli cells = experiment: Relative survival rates of Escherichia coli cells after 1 hr incubation (bactericidal activity); format: cell-based; conditions: for Relative survival rate of Escherichia coli cells: in 0.1 × PBS, 1 hr incubation
Method: The antibiotic effectiveness of the polypeptides of the invention is illustrated by their effect on survival rates of Escherichia coli cells in Table 1.
(§1) The bactericidal effect of the individual fragments is readily determined by incubation (use of 1-10 μg polypeptide for a quantity of 1×10^7 bacteria cells) for one hour with Escherichia coli or other gram-negative (e.g. Erwinia carotovora, Agrobacterium tumefaciens, Pseudomonas fluorescens) or gram-positive type of bacteria (e.g. Micrococcus lysodeikticus, Clavibacter michiganensis), followed by plating out a dilution series of the suspension, and counting the surviving bacteria. The fungicidal effect of the individual fragments is determined by incubation for 20 hours with spores of Phytophthora nicotianae, or other fungus types, followed by plating out to determine the reduced growth length of the fungus hyphae. The activity is determined in relation to purified T4 lysozyme as standard.

[1] = test system: Phytophthora nicotianae zoospores; experiment: Relative length of germ tubes of Phytophthora nicotianae zoospores (fungicidal activity, Table 2); format: cell-based; conditions: 10 μg, in 0.1 xPBS, after 7 hrs, against blank control
Phytophthora nicotianae = experiment: Fungus tests: relative lengths of germ tubes (untitled table, buffers I/II); format: cell-based
Method: Fungus tests: Relative lengths of germ tubes
as §1

muramidase = experiment: Enzyme activity (muramidase) of the polypeptide; format: biochemical, bacteriophage T4

| Sequence | Relative survival rate of Escherichia coli cells (Escherichia coli cells; 1 μg) | Relative survival rate of Escherichia coli cells (Escherichia coli cells; 10 μg) | Bactericidal activity compared with T4 lysozyme, in words (Escherichia coli cells; comment on Table 1) | Relative length of germ tubes [1] | Relative lengths of germ tubes (Phytophthora nicotianae; 1 μg, in buffer I (20 μl buffer Al + 1 μl PBS)) | Enzyme activity (muramidase), in words (muramidase) | Enzyme activity (muramidase), in words (muramidase; listed as amino acid 143-155) | Relative lengths of germ tubes (Phytophthora nicotianae; 10 μg, in buffer II (20 μl buffer Al + 1 μl 50% DMSO/50% PBS)) |
| --- | --- | --- | --- | --- | --- | --- | --- | --- |
| PNRAKRVIFTFRT [Peptide A4] | 0.74 +/− 0.14 | 0.05 +/− 0.09 | significantly higher bactericidal activity | 0.48 | 0.59 | no enzymatic muramidase activity | none of the native enzymatic activity |  |
| WDEAAVNLAKSRWYNQ [Peptide A23, peptide including AA 126-141 of T4 lysozyme] |  |  |  |  |  |  |  | 0.69 |
